Data: patent US8952024B2, “Herbicidal pyrimidone derivatives” (E I du Pont de Nemours and Company, priority 2009, dated 2015)

Tests used:
Type in all cases: in vivo
rice (Oryza sativa) = assay: Test B flooded paddy test; settings: for Plant response rating, Rice: Flood (flooded paddy test), 125 g ai/ha, scale 0 to 100, 0 is no effect, 100 is complete control, 13 to 15 days; for Rice plant response rating: Flood, 31 g ai/ha, scale 0 to 100 (0 no effect, 100 complete control)
In short: (§1)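 2-leaf seedlings; pots flooded 3 cm over soil at treatment; cpd dosed into floodwater, depth kept constant. Greenhouse 13–15 d. Visual rating vs untreated controls, 0 = no effect, 100 = complete control.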

[1] = system: barnyardgrass (Echinochloa crus-galli); assay: Test B flooded paddy test; settings: for Plant response rating, Barnyardgrass: Flood (flooded paddy test), 125 g ai/ha, scale 0 to 100, 0 is no effect, 100 is complete control, 13 to 15 days; for Barnyardgrass plant response rating: Flood, 31 g ai/ha, scale 0 to 100 (0 no effect, 100 complete control)
In short: as §1

[2] = system: ducksalad (Heteranthera limosa); assay: Test B flooded paddy test; settings: for Plant response rating, Ducksalad: Flood (flooded paddy test), 125 g ai/ha, scale 0 to 100, 0 is no effect, 100 is complete control, 13 to 15 days; for Ducksalad plant response rating: Flood, 31 g ai/ha, scale 0 to 100 (0 no effect, 100 complete control)
In short: as §1

[3] = system: umbrella sedge (Cyperus difformis); assay: Test B flooded paddy test; settings: for Plant response rating, Sedge, Umbrella: Flood (flooded paddy test), 125 g ai/ha, scale 0 to 100, 0 is no effect, 100 is complete control, 13 to 15 days; for Sedge, Umbrella plant response rating: Flood, 31 g ai/ha, scale 0 to 100 (0 no effect, 100 complete control)
In short: as §1

corn (Zea mays) = assay: Test A pre-/postemergence plant response; settings: for Corn plant response rating: visual injury, 0 to 100 scale (0 no effect, 100 complete control), approx. ten days
In short: (§2)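 Formulated test chemicals (non-phytotoxic solvent, surfactant) were sprayed onto soil right after planting and simultaneously onto young plants at one to two leaves, 2 to 10 cm tall. Plants stayed in the greenhouse about ten days; injury was then visually scored against untreated controls, from 0 (no effect) to 100 (complete control).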

[4] = system: barnyardgrass (Echinochloa crus-galli); assay: Test A pre-/postemergence plant response; settings: for Barnyardgrass plant response rating: visual injury, 0 to 100 scale (0 no effect, 100 complete control), approx. ten days
In short: as §2

[5] = system: morningglory (Ipomoea spp.); assay: Test A pre-/postemergence plant response; settings: for Morningglory plant response rating: visual injury, 0 to 100 scale (0 no effect, 100 complete control), approx. ten days
In short: as §2

[6] = system: velvetleaf (Abutilon theophrasti); assay: Test A pre-/postemergence plant response; settings: for Velvetleaf plant response rating: visual injury, 0 to 100 scale (0 no effect, 100 complete control), approx. ten days
In short: as §2

[7] = system: large crabgrass (Digitaria sanguinalis); assay: Test A pre-/postemergence plant response; settings: for Crabgrass, Large plant response rating: visual injury, 0 to 100 scale (0 no effect, 100 complete control), approx. ten days
In short: as §2

[8] = system: pigweed (Amaranthus retroflexus); assay: Test A pre-/postemergence plant response; settings: for Pigweed plant response rating: visual injury, 0 to 100 scale (0 no effect, 100 complete control), approx. ten days
In short: as §2

[9] = system: wheat (Triticum aestivum); assay: Test A pre-/postemergence plant response; settings: for Wheat plant response rating: visual injury, 0 to 100 scale (0 no effect, 100 complete control), approx. ten days
In short: as §2

[10] = system: giant foxtail (Setaria faberii); assay: Test A pre-/postemergence plant response; settings: for Foxtail, Giant plant response rating: visual injury, 0 to 100 scale (0 no effect, 100 complete control), approx. ten days
In short: as §2

[11] = Postemergence, 125 g ai/ha, 0 to 100 scale where 0 is no effect and 100 is complete control
[12] = Preemergence, 125 g ai/ha, 0 to 100 scale, 0 = no effect, 100 = complete control
[13] = Preemergence, 500 g ai/ha, 0 to 100 scale, 0 = no effect, 100 = complete control

Row | SMILES | Plant response rating, Rice (rice (Oryza sativa)) | Rice plant response rating (rice (Oryza sativa)) | Plant response rating, Barnyardgrass [1] | Barnyardgrass plant response rating [1] | Plant response rating, Ducksalad [2] | Ducksalad plant response rating [2] | Plant response rating, Sedge, Umbrella [3] | Sedge, Umbrella plant response rating [3] | Plant response rating, Corn (corn (Zea mays); [11]) | Corn plant response rating (corn (Zea mays); Postemergence, 500 g ai/ha) | Plant response rating, Corn (corn (Zea mays); [12]) | Plant response rating, Corn (corn (Zea mays); [13]) | Plant response rating, Barnyardgrass [4, 11] | Barnyardgrass plant response rating ([4]; Postemergence, 500 g ai/ha) | Plant response rating, Barnyardgrass [4, 12] | Plant response rating, Barnyardgrass [4, 13] | Plant response rating, Morningglory [5, 11] | Morningglory plant response rating ([5]; Postemergence, 500 g ai/ha) | Plant response rating, Morningglory [5, 12] | Plant response rating, Morningglory [5, 13] | also measured
1 | Cc1cc(F)ccc1-n1c(-c2cccc(Cl)c2)ncc(C(=O)C2=C(O)CCCC2=O)c1=O [Compound 167] | 0 | 0 | 20 | 0 | 70 | 0 | 60 | 20 | 30 | 30 | 0 | 0 | 60 | 100 | 0 | 30 | 60 | 100 | 0 | 0 | Plant response rating, Velvetleaf [6, 11]: 100; Velvetleaf plant response rating ([6]; Postemergence, 500 g ai/ha): 100; Plant response rating, Velvetleaf [6, 12]: 70; Plant response rating, Velvetleaf [6, 13]: 100; Plant response rating, Crabgrass, Large [7, 11]: 60; Crabgrass, Large plant response rating ([7]; Postemergence, 500 g ai/ha): 90; Plant response rating, Crabgrass, Large [7, 12]: 20; Plant response rating, Crabgrass, Large [7, 13]: 90; Plant response rating, Pigweed [8, 11]: 90; Pigweed plant response rating ([8]; Postemergence, 500 g ai/ha): 100; Plant response rating, Pigweed [8, 12]: 10; Plant response rating, Pigweed [8, 13]: 90; Plant response rating, Wheat [9, 11]: 0; Wheat plant response rating ([9]; Postemergence, 500 g ai/ha): 0; Plant response rating, Wheat [9, 12]: 0; Plant response rating, Wheat [9, 13]: 0; Plant response rating, Foxtail, Giant [10, 11]: 90; Foxtail, Giant plant response rating ([10]; Postemergence, 500 g ai/ha): 90; Plant response rating, Foxtail, Giant [10, 12]: 10; Plant response rating, Foxtail, Giant [10, 13]: 50
2 | C#CCn1c(-c2cc(F)cc(F)c2)ncc(C(=O)C2=C(O)CCCC2=O)c1=O [Compound 170] | 20 | 15 | 30 | 0 | 45 | 0 | 35 | 0 | 20 | 30 | 0 | 0 | 40 | 90 | 0 | 60 | 100 | 100 | 0 | 70 | Plant response rating, Velvetleaf [6, 11]: 100; Velvetleaf plant response rating ([6]; Postemergence, 500 g ai/ha): 100; Plant response rating, Velvetleaf [6, 12]: 10; Plant response rating, Velvetleaf [6, 13]: 80; Plant response rating, Crabgrass, Large [7, 11]: 60; Crabgrass, Large plant response rating ([7]; Postemergence, 500 g ai/ha): 90; Plant response rating, Crabgrass, Large [7, 12]: 10; Plant response rating, Crabgrass, Large [7, 13]: 70; Plant response rating, Pigweed [8, 11]: 80; Pigweed plant response rating ([8]; Postemergence, 500 g ai/ha): 100; Plant response rating, Pigweed [8, 12]: 30; Plant response rating, Pigweed [8, 13]: 50; Plant response rating, Wheat [9, 11]: 0; Wheat plant response rating ([9]; Postemergence, 500 g ai/ha): 20; Plant response rating, Wheat [9, 12]: 0; Plant response rating, Wheat [9, 13]: 20; Plant response rating, Foxtail, Giant [10, 11]: 50; Foxtail, Giant plant response rating ([10]; Postemergence, 500 g ai/ha): 80; Plant response rating, Foxtail, Giant [10, 12]: 10; Plant response rating, Foxtail, Giant [10, 13]: 70
3 | CCCn1c(-c2cccc(C)c2)ncc(C(=O)C2=C(O)CCCC2=O)c1=O [Compound 172] | 0 | 0 | 20 | 0 | 60 | 20 | 75 | 0 | 20 | 30 | 0 | 0 | 90 | 90 | 10 | 80 | 90 | 100 | 0 | 50 | Plant response rating, Velvetleaf [6, 11]: 100; Velvetleaf plant response rating ([6]; Postemergence, 500 g ai/ha): 100; Plant response rating, Velvetleaf [6, 12]: 50; Plant response rating, Velvetleaf [6, 13]: 80; Plant response rating, Crabgrass, Large [7, 11]: 60; Crabgrass, Large plant response rating ([7]; Postemergence, 500 g ai/ha): 80; Plant response rating, Crabgrass, Large [7, 12]: 10; Plant response rating, Crabgrass, Large [7, 13]: 90; Plant response rating, Pigweed [8, 11]: 100; Pigweed plant response rating ([8]; Postemergence, 500 g ai/ha): 100; Plant response rating, Pigweed [8, 12]: 10; Plant response rating, Pigweed [8, 13]: 100; Plant response rating, Wheat [9, 11]: 0; Wheat plant response rating ([9]; Postemergence, 500 g ai/ha): 20; Plant response rating, Wheat [9, 12]: 0; Plant response rating, Wheat [9, 13]: 0; Plant response rating, Foxtail, Giant [10, 11]: 60; Foxtail, Giant plant response rating ([10]; Postemergence, 500 g ai/ha): 90; Plant response rating, Foxtail, Giant [10, 12]: 10; Plant response rating, Foxtail, Giant [10, 13]: 60
4 | CCc1ccc(-n2c(-c3cccc(Br)c3)ncc(C(=O)C3=C(O)CCCC3=O)c2=O)cc1 [Compound 175] | 0 | 0 | 20 | 0 | 95 | 75 | 85 | 75 | 0 | 20 | 0 | 0 | 50 | 100 | 0 | 30 | 10 | 80 | 0 | 10 | Plant response rating, Velvetleaf [6, 11]: 100; Velvetleaf plant response rating ([6]; Postemergence, 500 g ai/ha): 100; Plant response rating, Velvetleaf [6, 12]: 40; Plant response rating, Velvetleaf [6, 13]: 50; Plant response rating, Crabgrass, Large [7, 11]: 40; Crabgrass, Large plant response rating ([7]; Postemergence, 500 g ai/ha): 80; Plant response rating, Crabgrass, Large [7, 12]: 30; Plant response rating, Crabgrass, Large [7, 13]: 50; Plant response rating, Pigweed [8, 11]: 100; Pigweed plant response rating ([8]; Postemergence, 500 g ai/ha): 100; Plant response rating, Pigweed [8, 12]: 60; Plant response rating, Pigweed [8, 13]: 100; Plant response rating, Wheat [9, 11]: 0; Wheat plant response rating ([9]; Postemergence, 500 g ai/ha): 0; Plant response rating, Wheat [9, 12]: 0; Plant response rating, Wheat [9, 13]: 0; Plant response rating, Foxtail, Giant [10, 11]: 30; Foxtail, Giant plant response rating ([10]; Postemergence, 500 g ai/ha): 80; Plant response rating, Foxtail, Giant [10, 12]: 0; Plant response rating, Foxtail, Giant [10, 13]: 50
